Measured values published in US20150065544A1, “THERAPEUTIC AGENT AND PREVENTIVE AGENT FOR DEMYELINATING DISEASE” (OSAKA UNIVERSITY, priority 2011, published 2015).

Assays:
[1] = test system: mouse experimental autoimmune encephalomyelitis (EAE) models; assay: Clinical symptom scores in mouse experimental autoimmune encephalomyelitis (EAE) model; format: in vivo, mouse (SJL/J); conditions: Day 10 to Day 44 after immunization, versus tap water group 1, FIG. 1
Description: In mouse experimental autoimmune encephalomyelitis (EAE) models, which are MS animal models, the effects of 2-(3-cyano-4-isobutyloxyphenyl)-4-methyl-5-thiazolecarboxylic acid (Compound A) were investigated. Proteolipid protein (PLP) and complete Freund's adjuvant were administered subcutaneously to 8-week-old female SJL/J mice for immunization to induce EAE. The animals were divided into 3 groups; tap water, 1.5 mg/kg/day of Compound A and 0.75 mg/kg/day of Compound A were administered to the first, second and third group, respectively, by administration in drinking water from Day 10 to Day 44 after the immunization day. Neurological symptoms in the extremities were monitored daily from the day of immunization to Day 44 post-immunization, and the observations were scored as clinical symptoms (Vsevolod Smolianov, et al., Alteration of T cell cytokine production in PLPp-139-151-induced EAE in SJL mice by animmunostimulatory CpG Oligonucleotide. Journal of Neuroinflammation 2011, 8:59).

[2] = test system: mouse experimental autoimmune encephalomyelitis (EAE) models; assay: Histopathological examination of spinal cord tissues of EAE mice; format: in vivo, mouse (SJL/J); conditions: Day 16 post-immunization

Compound: Cc1nc(-c2ccc(OCC(C)C)c(C#N)c2)sc1C(=O)O [Compound A, 2-(3-cyano-4-isobutyloxyphenyl)-4-methyl-5-thiazolecarboxylic acid]
- Clinical symptoms of EAE (neurological symptom scores) ([1]; group 2: 1.5 mg/kg/day in drinking water): suppressed
- Clinical symptoms of EAE (neurological symptom scores) ([1]; group 3: 0.75 mg/kg/day in drinking water): suppressed
- Inflammation in the spinal cord tissues (iNOS-positive cells, activated macrophages, activation of astrocytes) ([2]; conclusion from FIG. 2): suppressed inflammation in the tissues
- Staining of inducible nitric oxide synthase (iNOS), macrophages and astrocytes in spinal cord tissues ([2]; group 3: 0.75 mg/kg/day, versus tap water group 1, FIG. 2): weak
